How the values were obtained:
[1] = Compatibility in solution with 4500 MW polyacrylic acid polymer under acidic conditions; format: physicochemical
[2] = tested on: yeast and mold inoculum cocktail (Canidia albicans ATCC 10231, Saccharomyces cerevisiae ATCC 834, Aspergillus niger ATCC 16404); settings: over 3 weeks in sump solution; compared with the other evaluated preservatives; FIG. 1
Experimental: In order to identify preservative systems for replacing Kathon CG-ICP (isothiazolinone blend) from solid rinse aid formulations, various potential preservatives were evaluated.
For performance reasons, the preservatives were tested with the 4500 MW polyacrylic acid polymer and 10% level of monosodium citrate or fumaric acid.
The test temperature was ambient (20° C.-26° C.) and exposure times were 0, 7, 14, 28 and 35 days.
The preservatives were formulated at their upper concentration levels before triggering the use of personal protective equipment and measured fungi recovered and pH.

[3] = tested on: Yeast and mold cocktail (Canidia albicans ATCC 10231, Saccharomyces cerevisiae ATCC 834, Aspergillus niger ATCC 16404); experiment: Preservative test over 28 days in 7 and 18.5 grain water, yeast and mold counts (Example 5); format: cell-based; settings: 140 ppm with 2000 ppm monosodium citrate versus 200 ppm bis (3-aminopropyl) dodecylamine in hard water
Experimental: (§1) For USP bacteria there must be no less than 2.0 log reduction from the initial inoculated count at 14 days, and no increase from the 14 days' count at 28 days. A result of “no increase” is defined as not more than 0.5 log higher than previous value. For additional standards examined the preservation capability of a composition is evaluated over a predetermined time (as identified in the Example) and the inhibition or reduction of microbial growth is assessed, without the requirement for complete elimination of the entire microbial inoculum.
The survival of both bacterial cocktail and fungal cocktails (as described in prior Example) were monitored over 28 days.
The yeast and mold inoculum was made up of equal parts of the organisms listed (incubated in sabourand agar at 26° C. for 3 days):

[4] = tested on: Bacterial cocktail (Staphylococcus aureus ATCC 6538, Escherichia coli ATCC 11229, Enterobacter aerogenes ATCC 13048, Burkholderia cepacia ATCC 25416 …); experiment: Preservative test over 28 days in 7 and 18.5 grain water, bacterial counts (Example 5); format: cell-based; settings: 140 ppm with 2000 ppm monosodium citrate versus 300 ppm with no added acidity
Experimental: as §1
Formulations of pyrithione preservatives were evaluated in existing solid rinse aid formulations for USP and commercial standards, modified to incorporate field isolate from a sump solution. The survival of both bacterial cocktail and fungal cocktails (as described in prior Example) were monitored over 28 days.
The bacteria inoculum was made up of equal parts of the organisms listed (incubated in tryptone glucose extract agar at 32° C. for 3 days):

SMILES	behaviour in solution with the 4500 MW polyacrylic acid polymer [1]	impact at reducing fungi (mean log fungi reduction) [2]	preservation performance, comparison [3]	inhibition of microorganisms (especially bacteria), comparison [4]
CCCCCCCCCCCCN(CCCN)CCCN [bis (3-aminopropyl) dodecylamine, Bis (3-aminopropyl) dodecylamine]	precipitate out of solution	–	–	–
On1ccccc1=S.[Na] [sodium pyrithione, 1-hydroxy-2(1H)-pyridinethione, sodium salt]	–	greatest impact at reducing fungi	outperformed	much more effective at inhibiting microorganisms
